Holding throughout (conditions): Compound concentration 10 µM
The target in test [1] is 5-hydroxytryptamine receptor 6 (Homo sapiens) (UniProt P50406).
Description: PDSP Primary Binding target: HTR6 - Compounds are tested at 10 uM concentration, plate are incubated at room temperature in the dark for 90 minutes. Reaction are stopped by vacuum filtration onto 0.3% polyethyleneimine soaked filter mats using Filtermate harvester. Scintilation cocktail is then melted onto microwave-dried filters on a hot plate and the radio activity is counted in Microbia counter.
In test [2] the target is D(1B) dopamine receptor (Homo sapiens) (UniProt P21918).
Description: PDSP Primary Binding target: DRD5 - Compounds are tested at 10 uM concentration, plate are incubated at room temperature in the dark for 90 minutes. Reaction are stopped by vacuum filtration onto 0.3% polyethyleneimine soaked filter mats using Filtermate harvester. Scintilation cocktail is then melted onto microwave-dried filters on a hot plate and the radio activity is counted in Microbia counter.
In test [3] the target is T1, Muscarinic acetylcholine receptor M2 (Homo sapiens) (UniProt P08172).
T1 sequence (whole entry): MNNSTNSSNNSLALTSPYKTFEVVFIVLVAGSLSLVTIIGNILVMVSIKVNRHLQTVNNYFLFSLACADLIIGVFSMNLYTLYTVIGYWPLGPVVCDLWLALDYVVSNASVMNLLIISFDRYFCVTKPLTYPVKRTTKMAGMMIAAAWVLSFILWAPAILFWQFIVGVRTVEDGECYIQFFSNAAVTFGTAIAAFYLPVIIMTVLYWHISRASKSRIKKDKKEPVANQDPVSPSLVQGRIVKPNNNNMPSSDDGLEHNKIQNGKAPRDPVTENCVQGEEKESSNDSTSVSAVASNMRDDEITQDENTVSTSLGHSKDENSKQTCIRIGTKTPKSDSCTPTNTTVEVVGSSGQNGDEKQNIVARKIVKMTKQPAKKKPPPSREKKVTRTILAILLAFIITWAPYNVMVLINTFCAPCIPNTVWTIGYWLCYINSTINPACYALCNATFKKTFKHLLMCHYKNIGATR
Description: PDSP Primary Binding target: CHRM2 - Compounds are tested at 10 uM concentration, plate are incubated at room temperature in the dark for 90 minutes. Reaction are stopped by vacuum filtration onto 0.3% polyethyleneimine soaked filter mats using Filtermate harvester. Scintilation cocktail is then melted onto microwave-dried filters on a hot plate and the radio activity is counted in Microbia counter.

Test [4] addresses 5-hydroxytryptamine receptor 7 (Homo sapiens) (UniProt P34969).
Description: PDSP Primary Binding target: HTR7 - Compounds are tested at 10 uM concentration, plate are incubated at room temperature in the dark for 90 minutes. Reaction are stopped by vacuum filtration onto 0.3% polyethyleneimine soaked filter mats using Filtermate harvester. Scintilation cocktail is then melted onto microwave-dried filters on a hot plate and the radio activity is counted in Microbia counter.
In test [5] the target is D(3) dopamine receptor (Homo sapiens) (UniProt P35462).
Description: PDSP Primary Binding target: DRD3 - Compounds are tested at 10 uM concentration, plate are incubated at room temperature in the dark for 90 minutes. Reaction are stopped by vacuum filtration onto 0.3% polyethyleneimine soaked filter mats using Filtermate harvester. Scintilation cocktail is then melted onto microwave-dried filters on a hot plate and the radio activity is counted in Microbia counter.
The target in test [6] is 5-hydroxytryptamine receptor 2B (Homo sapiens) (UniProt P41595).
Description: PDSP Primary Binding target: HTR2B - Compounds are tested at 10 uM concentration, plate are incubated at room temperature in the dark for 90 minutes. Reaction are stopped by vacuum filtration onto 0.3% polyethyleneimine soaked filter mats using Filtermate harvester. Scintilation cocktail is then melted onto microwave-dried filters on a hot plate and the radio activity is counted in Microbia counter.
For test [7], the target named is T2, Muscarinic acetylcholine receptor M1 (Homo sapiens) (UniProt P11229).
T2 sequence (whole entry): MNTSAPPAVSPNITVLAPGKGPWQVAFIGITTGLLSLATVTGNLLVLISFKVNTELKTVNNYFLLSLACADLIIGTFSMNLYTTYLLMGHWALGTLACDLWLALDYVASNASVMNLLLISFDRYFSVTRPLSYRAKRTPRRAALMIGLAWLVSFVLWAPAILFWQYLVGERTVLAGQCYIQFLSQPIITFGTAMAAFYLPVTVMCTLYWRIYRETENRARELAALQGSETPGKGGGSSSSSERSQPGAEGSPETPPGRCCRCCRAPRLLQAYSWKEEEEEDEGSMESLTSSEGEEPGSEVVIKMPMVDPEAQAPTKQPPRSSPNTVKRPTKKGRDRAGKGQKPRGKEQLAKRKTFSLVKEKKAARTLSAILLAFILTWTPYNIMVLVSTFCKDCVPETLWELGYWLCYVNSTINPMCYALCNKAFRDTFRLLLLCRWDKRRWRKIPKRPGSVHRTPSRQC
Description: PDSP Primary Binding target: CHRM1 - Compounds are tested at 10 uM concentration, plate are incubated at room temperature in the dark for 90 minutes. Reaction are stopped by vacuum filtration onto 0.3% polyethyleneimine soaked filter mats using Filtermate harvester. Scintilation cocktail is then melted onto microwave-dried filters on a hot plate and the radio activity is counted in Microbia counter.

Test [8] has as its target T3, Alpha-2A adrenergic receptor (Homo sapiens) (UniProt P08913).
T3 sequence (whole entry): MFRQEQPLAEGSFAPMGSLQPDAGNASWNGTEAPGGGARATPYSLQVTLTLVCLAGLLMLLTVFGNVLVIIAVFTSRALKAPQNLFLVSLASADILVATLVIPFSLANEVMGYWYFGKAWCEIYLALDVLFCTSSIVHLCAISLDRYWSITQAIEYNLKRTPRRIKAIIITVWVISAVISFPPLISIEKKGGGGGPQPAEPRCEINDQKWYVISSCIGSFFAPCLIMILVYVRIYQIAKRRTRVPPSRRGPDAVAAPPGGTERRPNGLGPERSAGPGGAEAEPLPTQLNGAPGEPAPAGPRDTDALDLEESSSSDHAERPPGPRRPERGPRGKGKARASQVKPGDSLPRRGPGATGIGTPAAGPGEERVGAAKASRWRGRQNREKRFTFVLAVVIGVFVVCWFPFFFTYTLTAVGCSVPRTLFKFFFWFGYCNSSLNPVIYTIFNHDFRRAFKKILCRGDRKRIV
Description: PDSP Primary Binding target: ADRA2A - Compounds are tested at 10 uM concentration, plate are incubated at room temperature in the dark for 90 minutes. Reaction are stopped by vacuum filtration onto 0.3% polyethyleneimine soaked filter mats using Filtermate harvester. Scintilation cocktail is then melted onto microwave-dried filters on a hot plate and the radio activity is counted in Microbia counter.

The target in test [9] is Beta-2 adrenergic receptor (Homo sapiens) (UniProt P07550).
Description: PDSP Primary Binding target: ADRB2 - Compounds are tested at 10 uM concentration, plate are incubated at room temperature in the dark for 90 minutes. Reaction are stopped by vacuum filtration onto 0.3% polyethyleneimine soaked filter mats using Filtermate harvester. Scintilation cocktail is then melted onto microwave-dried filters on a hot plate and the radio activity is counted in Microbia counter.
The target in test [10] is Delta-type opioid receptor (Homo sapiens) (UniProt P41143).
Description: PDSP Primary Binding target: OPRD1 - Compounds are tested at 10 uM concentration, plate are incubated at room temperature in the dark for 90 minutes. Reaction are stopped by vacuum filtration onto 0.3% polyethyleneimine soaked filter mats using Filtermate harvester. Scintilation cocktail is then melted onto microwave-dried filters on a hot plate and the radio activity is counted in Microbia counter.
Test [11] concerns the target T4, Muscarinic acetylcholine receptor M4 (Homo sapiens) (UniProt P08173).
T4 sequence (whole entry): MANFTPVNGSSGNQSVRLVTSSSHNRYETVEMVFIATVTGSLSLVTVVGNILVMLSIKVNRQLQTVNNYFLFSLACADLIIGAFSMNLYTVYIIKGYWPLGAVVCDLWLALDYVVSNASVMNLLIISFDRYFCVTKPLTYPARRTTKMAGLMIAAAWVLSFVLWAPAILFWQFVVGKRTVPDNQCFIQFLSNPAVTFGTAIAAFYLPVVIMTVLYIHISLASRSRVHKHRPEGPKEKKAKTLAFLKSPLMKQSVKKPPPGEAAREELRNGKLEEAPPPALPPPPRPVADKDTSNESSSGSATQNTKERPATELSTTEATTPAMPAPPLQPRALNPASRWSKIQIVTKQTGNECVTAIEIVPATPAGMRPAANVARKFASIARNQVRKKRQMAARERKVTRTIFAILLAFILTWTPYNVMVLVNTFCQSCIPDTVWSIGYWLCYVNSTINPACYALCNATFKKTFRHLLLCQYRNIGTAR
Description: PDSP Primary Binding target: CHRM4 - Compounds are tested at 10 uM concentration, plate are incubated at room temperature in the dark for 90 minutes. Reaction are stopped by vacuum filtration onto 0.3% polyethyleneimine soaked filter mats using Filtermate harvester. Scintilation cocktail is then melted onto microwave-dried filters on a hot plate and the radio activity is counted in Microbia counter.

Test [12] concerns the target Sigma non-opioid intracellular receptor 1 (Homo sapiens) (UniProt Q99720).
Description: PDSP Primary Binding target: SIGMAR1 - Compounds are tested at 10 uM concentration, plate are incubated at room temperature in the dark for 90 minutes. Reaction are stopped by vacuum filtration onto 0.3% polyethyleneimine soaked filter mats using Filtermate harvester. Scintilation cocktail is then melted onto microwave-dried filters on a hot plate and the radio activity is counted in Microbia counter.
Test [13] concerns the target T5, 5-hydroxytryptamine receptor 2C (Homo sapiens) (UniProt P28335).
T5 sequence (whole entry): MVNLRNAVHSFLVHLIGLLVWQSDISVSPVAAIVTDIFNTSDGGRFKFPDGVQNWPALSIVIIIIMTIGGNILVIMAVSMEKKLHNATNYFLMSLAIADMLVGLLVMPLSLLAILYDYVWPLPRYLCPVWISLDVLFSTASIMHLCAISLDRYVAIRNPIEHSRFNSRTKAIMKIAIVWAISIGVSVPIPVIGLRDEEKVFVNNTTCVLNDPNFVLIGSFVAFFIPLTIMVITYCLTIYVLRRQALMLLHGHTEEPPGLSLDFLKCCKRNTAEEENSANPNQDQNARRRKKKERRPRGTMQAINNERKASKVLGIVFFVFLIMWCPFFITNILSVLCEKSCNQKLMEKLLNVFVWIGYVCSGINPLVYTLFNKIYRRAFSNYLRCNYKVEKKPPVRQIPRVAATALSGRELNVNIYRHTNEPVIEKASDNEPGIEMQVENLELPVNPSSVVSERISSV
Description: PDSP Primary Binding target: HTR2C - Compounds are tested at 10 uM concentration, plate are incubated at room temperature in the dark for 90 minutes. Reaction are stopped by vacuum filtration onto 0.3% polyethyleneimine soaked filter mats using Filtermate harvester. Scintilation cocktail is then melted onto microwave-dried filters on a hot plate and the radio activity is counted in Microbia counter.

Test [14] has as its target Kappa-type opioid receptor (Homo sapiens) (UniProt P41145).
Description: PDSP Primary Binding target: OPRK1 - Compounds are tested at 10 uM concentration, plate are incubated at room temperature in the dark for 90 minutes. Reaction are stopped by vacuum filtration onto 0.3% polyethyleneimine soaked filter mats using Filtermate harvester. Scintilation cocktail is then melted onto microwave-dried filters on a hot plate and the radio activity is counted in Microbia counter.

SMILES strings stand for the structures.

D(3) dopamine receptor (Homo sapiens), sequence (P35462 whole entry): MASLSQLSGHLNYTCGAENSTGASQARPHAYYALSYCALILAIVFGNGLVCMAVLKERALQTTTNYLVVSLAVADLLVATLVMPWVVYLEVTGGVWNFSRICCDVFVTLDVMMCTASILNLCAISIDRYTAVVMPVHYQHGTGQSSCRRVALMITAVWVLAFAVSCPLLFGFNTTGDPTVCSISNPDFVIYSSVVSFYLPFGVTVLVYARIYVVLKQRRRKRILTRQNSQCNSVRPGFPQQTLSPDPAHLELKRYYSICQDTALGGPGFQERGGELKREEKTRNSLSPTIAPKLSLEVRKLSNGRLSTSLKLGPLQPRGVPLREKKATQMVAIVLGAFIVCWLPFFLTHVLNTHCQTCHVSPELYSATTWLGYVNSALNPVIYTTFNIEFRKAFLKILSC
5-hydroxytryptamine receptor 6 (Homo sapiens), sequence (P50406 whole entry): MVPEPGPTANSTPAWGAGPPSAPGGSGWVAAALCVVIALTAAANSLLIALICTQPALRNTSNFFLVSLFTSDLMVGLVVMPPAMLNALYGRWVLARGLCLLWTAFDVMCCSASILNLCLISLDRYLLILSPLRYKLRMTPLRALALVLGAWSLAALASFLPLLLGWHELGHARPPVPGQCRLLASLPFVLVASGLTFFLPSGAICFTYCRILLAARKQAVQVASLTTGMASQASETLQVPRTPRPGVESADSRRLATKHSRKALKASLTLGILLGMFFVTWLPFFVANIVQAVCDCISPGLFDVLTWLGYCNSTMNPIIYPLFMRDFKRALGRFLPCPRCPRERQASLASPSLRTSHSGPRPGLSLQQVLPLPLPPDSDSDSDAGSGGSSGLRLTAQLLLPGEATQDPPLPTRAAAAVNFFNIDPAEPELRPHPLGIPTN
Beta-2 adrenergic receptor (Homo sapiens), sequence (P07550 whole entry, looked up): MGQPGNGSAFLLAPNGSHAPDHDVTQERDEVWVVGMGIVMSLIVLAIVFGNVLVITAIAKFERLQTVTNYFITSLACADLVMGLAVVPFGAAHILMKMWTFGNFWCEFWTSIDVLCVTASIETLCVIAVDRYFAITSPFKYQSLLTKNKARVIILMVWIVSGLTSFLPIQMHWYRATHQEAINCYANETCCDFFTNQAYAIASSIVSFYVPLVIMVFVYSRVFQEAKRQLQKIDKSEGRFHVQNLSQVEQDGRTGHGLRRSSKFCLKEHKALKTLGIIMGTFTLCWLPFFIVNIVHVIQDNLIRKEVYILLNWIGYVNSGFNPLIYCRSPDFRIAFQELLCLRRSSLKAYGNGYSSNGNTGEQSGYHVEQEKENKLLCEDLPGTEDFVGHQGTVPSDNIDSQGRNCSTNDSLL
D(1B) dopamine receptor (Homo sapiens), sequence (P21918 whole entry): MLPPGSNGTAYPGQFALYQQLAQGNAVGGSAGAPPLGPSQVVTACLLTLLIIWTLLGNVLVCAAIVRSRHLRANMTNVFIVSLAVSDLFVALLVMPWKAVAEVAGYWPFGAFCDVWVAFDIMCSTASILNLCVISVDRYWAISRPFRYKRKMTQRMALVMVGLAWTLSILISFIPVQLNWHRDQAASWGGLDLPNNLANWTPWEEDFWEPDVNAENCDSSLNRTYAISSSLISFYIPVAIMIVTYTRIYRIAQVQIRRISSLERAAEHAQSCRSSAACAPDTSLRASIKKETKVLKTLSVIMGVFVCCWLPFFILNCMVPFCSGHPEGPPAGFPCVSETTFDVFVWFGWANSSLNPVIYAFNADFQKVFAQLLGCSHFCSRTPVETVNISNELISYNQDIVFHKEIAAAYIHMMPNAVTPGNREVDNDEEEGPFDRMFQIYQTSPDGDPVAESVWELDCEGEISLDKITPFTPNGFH
Delta-type opioid receptor (Homo sapiens), sequence (P41143 whole entry): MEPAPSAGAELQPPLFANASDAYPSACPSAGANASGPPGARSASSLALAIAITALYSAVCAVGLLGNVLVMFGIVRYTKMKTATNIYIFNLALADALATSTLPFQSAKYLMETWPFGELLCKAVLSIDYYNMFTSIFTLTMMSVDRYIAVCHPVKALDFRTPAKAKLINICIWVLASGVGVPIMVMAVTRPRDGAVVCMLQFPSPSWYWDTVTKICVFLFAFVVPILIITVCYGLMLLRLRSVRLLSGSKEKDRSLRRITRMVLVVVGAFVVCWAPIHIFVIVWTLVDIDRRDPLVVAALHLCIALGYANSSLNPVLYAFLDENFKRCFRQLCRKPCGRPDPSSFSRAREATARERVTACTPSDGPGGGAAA
Sigma non-opioid intracellular receptor 1 (Homo sapiens), sequence (Q99720 whole entry): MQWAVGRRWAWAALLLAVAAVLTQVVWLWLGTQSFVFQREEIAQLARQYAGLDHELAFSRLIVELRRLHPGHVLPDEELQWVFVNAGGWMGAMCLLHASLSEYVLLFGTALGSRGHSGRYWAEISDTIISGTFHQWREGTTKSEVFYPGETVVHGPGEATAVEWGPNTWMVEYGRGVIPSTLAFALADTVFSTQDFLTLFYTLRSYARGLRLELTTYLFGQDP
5-hydroxytryptamine receptor 7 (Homo sapiens), sequence (P34969 whole entry): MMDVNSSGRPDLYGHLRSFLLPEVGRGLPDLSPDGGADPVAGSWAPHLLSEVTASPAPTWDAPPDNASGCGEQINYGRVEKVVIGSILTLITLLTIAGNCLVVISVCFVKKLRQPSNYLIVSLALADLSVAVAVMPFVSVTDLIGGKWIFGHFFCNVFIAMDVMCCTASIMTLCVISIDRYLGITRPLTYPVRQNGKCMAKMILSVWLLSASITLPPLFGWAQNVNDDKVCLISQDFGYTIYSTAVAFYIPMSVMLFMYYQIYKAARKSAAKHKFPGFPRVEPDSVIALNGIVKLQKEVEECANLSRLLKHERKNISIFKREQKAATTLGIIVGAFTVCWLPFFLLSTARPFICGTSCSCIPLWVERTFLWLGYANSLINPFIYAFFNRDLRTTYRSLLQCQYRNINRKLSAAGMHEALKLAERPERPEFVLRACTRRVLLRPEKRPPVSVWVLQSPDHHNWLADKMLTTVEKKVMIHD
5-hydroxytryptamine receptor 2B (Homo sapiens), sequence (P41595 whole entry): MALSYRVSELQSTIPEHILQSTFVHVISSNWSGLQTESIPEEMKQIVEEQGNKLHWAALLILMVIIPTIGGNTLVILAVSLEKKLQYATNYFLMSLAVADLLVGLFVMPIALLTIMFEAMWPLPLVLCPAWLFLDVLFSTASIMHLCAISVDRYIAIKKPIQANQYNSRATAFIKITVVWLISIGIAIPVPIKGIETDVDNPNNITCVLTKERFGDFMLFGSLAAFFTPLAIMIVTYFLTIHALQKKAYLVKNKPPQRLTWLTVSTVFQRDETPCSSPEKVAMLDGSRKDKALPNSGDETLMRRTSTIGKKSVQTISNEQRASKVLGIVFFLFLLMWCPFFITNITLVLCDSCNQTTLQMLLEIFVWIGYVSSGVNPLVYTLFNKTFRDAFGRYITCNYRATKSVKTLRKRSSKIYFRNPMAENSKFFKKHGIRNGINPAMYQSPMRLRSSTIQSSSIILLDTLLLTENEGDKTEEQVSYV
Kappa-type opioid receptor (Homo sapiens), sequence (P41145 whole entry): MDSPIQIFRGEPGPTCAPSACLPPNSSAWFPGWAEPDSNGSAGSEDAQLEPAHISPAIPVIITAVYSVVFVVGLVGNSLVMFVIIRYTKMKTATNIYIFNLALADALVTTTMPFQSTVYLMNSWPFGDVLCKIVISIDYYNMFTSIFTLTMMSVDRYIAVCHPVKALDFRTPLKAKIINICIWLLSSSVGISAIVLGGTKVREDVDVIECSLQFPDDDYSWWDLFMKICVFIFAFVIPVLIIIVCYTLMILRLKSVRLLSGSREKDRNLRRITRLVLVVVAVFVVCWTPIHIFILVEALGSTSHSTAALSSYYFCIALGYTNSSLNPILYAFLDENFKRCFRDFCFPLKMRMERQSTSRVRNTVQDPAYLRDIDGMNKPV

With `Cc1nc(-c2ccc(-c3ccc(C(=O)N4CCc5cc6c(cc54)C4(CCN(C)CC4)CO6)cc3)c(C)c2)no1`, the inhibition in test [1] is -6.79%; in test [2], 57.1%; in test [3] it was 44.5%; in test [4], 25.5%; in test [5], 18.8%; in test [6] it was 88.9%. For the same compound, the inhibition in test [7] is 66.4%; in test [8], 73%; in [9], 10.4%; in test [10], -1.39%; in test [11] it was 23%; in test [12], 75.2%. Further, the inhibition in test [13] is 85.3%.
As for `CCCSc1nc(N[C@@H]2C[C@H]2c2ccc(F)c(F)c2)c2nnn([C@@H]3C[C@H](OCCO)[C@@H](O)[C@H]3O)c2n1`, the inhibition in [1] is 7.72%; in [2], 2.95%; in [14], 27.5%; in [3] it was -1.83%; in [4] it was 16.8%; in [5], 29.6%. Moreover, the inhibition was 33.3% in test [6]; 18.3% in test [7]; 5.05% in test [9]; 17.9% in [10]; -3.79% in test [11]; 35.4% in test [12]. Moreover, the inhibition in test [13] was -3.61%.
For the compound `CCOC(=O)c1c(C)[nH]c2ccc3c(c12)CN1CCc2cc(OC)ccc2C1O3` (stereo not given), the inhibition in test [1] was 10.8%; in test [14], 57.4%; in test [3], 22.6%; in test [4], 9.23%; in test [5], 44.2%; in test [6], 67.6%. In addition, the inhibition in test [7] is 11.9%; in [8] it was 86.7%; in [9] it was 23.2%; in test [10], -2.17%; in test [11] it was 92.3%; in [12] it was 29.3%.
With `Cc1ccccc1C(=O)Nc1ccc(C(=O)N2CCCC(O)c3cc(Cl)ccc32)c(C)c1` (stereo not given), the inhibition in [1] was 1.21%; in test [2], 8.81%; in test [14], 21%; in test [3], 2.3%; in test [4] it was 8.44%; in test [5], 33%. The inhibition was 74.7% in test [6]; -6.43% in test [7]; 33.8% in test [8]; 7.13% in test [10]; -6.02% in test [11]; 28.2% in [12]. For the same compound, the inhibition in [13] was 78.3%.
For `C[C@@H](NCCCc1cccc(C(F)(F)F)c1)c1cccc2ccccc12`, the inhibition was 69.1% in [1]; -9.65% in [2]; 79.3% in [14]; 42% in test [3]; 51.6% in [4]; 94.4% in test [5]. Besides, the inhibition was 96.3% in test [6]; 17.6% in [7]; 27.9% in test [8]; 9.84% in test [9]; -2.86% in test [11]; 72.6% in test [13].
For the compound `c1ccc(N2CCN(Cc3nc4ccccc4[nH]3)CC2)nc1`, the inhibition in test [1] was -0.41%; in test [2], -1.78%; in [14] it was 54.7%; in test [3], -8.11%; in [4] it was 33.7%; in test [5] it was 33.1%. For the same compound, the inhibition was 16.4% in test [6]; 22.3% in test [7]; -5.06% in test [10]; -4.29% in test [11]; 50.5% in test [12]; -9.96% in test [13].
Consider `Cc1cc(C(=O)N2Cc3cnn(C)c3Nc3ccccc32)ccc1CNC(=O)N1CCC[C@H]1C(=S)N1CCCN(C)CC1`, for which the inhibition in [2] is 11%; in test [14], 61.7%; in [3], 68.4%; in [4], 0.75%; in test [5], 87.3%; in [6], 18.3%. Further, the inhibition in test [7] was 49.6%; in test [8] it was 13.1%; in test [9] it was -1.47%; in [11], 63%; in [12] it was -7.44%; in [13] it was -8.65%.
In the case of `CN1C2CCC1CC(OC(c1ccc(F)cc1)c1ccc(F)cc1)C2` (stereo not given), the inhibition in test [1] is 96.1%; in test [2], 66.6%; in [14], 65.7%; in [3] it was 111%; in test [4], 92.4%; in [5], 79.5%. Further, the inhibition was 102% in test [6]; 94.5% in test [7]; -6.19% in [9]; 95.6% in test [11]; 93.6% in test [12]; 92.9% in test [13].
With `CCCCCCCCCCCCCCCCOC[C@H](COP(=O)([O-])OCC[N+](C)(C)C)OC(C)=O`, the inhibition in test [1] is 4.6%; in test [2], 13.6%; in test [14], 11.9%; in [3], -4.25%; in test [4], -1.59%; in test [5], 72.5%. In addition, the inhibition in [7] is 49.9%; in [10] it was 43.7%; in test [11], -0.21%; in [12], 7.97%; in [13], 67.9%.

A word on the inhibition: it is the relative decrease from the control value, in per cent.

Source of the values: ChEMBL document CHEMBL5442219.
